Test results published in patent publication US20260062387A1, “SALT-INDUCIBLE KINASE INHIBITOR COMPOUND AND PHARMACEUTICAL COMPOSITION INCLUDING THE SAME” (MITSUBISHI TANABE PHARMA CORPORATION, priority 2023, published 2026).

Legend:
Type in all cases: biochemical
[1] = target: GST-tagged SIK3 (Homo sapiens (Human), UniProt Q9Y2K2); assay: SIK3 inhibition test (ADP-Glo Max Assay); settings: enzyme 100 nM, AMARA Peptide 100 μM, ATP 1 mM, 2 hours room temperature
Method in brief: (§1)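 ADP formed was detected by luciferase luminescence after a 2 h room-temperature reaction with 1 mM ATP, 5 mM MgCl2 and AMARA peptide at 200 μM (SIK1, SIK2) or 100 μM (SIK3). Final GST-enzyme levels were 20 nM SIK1, 3 nM SIK2 and 100 nM SIK3. IC50 came from 16-point concentration-response data.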

[2] = target: GST-tagged SIK2 (Homo sapiens (Human), UniProt Q9H0K1); assay: SIK2 inhibition test (ADP-Glo Max Assay); settings: enzyme 3 nM, AMARA Peptide 200 μM, ATP 1 mM, 2 hours room temperature
Sequence of GST-tagged SIK2 (Q9H0K1 whole entry): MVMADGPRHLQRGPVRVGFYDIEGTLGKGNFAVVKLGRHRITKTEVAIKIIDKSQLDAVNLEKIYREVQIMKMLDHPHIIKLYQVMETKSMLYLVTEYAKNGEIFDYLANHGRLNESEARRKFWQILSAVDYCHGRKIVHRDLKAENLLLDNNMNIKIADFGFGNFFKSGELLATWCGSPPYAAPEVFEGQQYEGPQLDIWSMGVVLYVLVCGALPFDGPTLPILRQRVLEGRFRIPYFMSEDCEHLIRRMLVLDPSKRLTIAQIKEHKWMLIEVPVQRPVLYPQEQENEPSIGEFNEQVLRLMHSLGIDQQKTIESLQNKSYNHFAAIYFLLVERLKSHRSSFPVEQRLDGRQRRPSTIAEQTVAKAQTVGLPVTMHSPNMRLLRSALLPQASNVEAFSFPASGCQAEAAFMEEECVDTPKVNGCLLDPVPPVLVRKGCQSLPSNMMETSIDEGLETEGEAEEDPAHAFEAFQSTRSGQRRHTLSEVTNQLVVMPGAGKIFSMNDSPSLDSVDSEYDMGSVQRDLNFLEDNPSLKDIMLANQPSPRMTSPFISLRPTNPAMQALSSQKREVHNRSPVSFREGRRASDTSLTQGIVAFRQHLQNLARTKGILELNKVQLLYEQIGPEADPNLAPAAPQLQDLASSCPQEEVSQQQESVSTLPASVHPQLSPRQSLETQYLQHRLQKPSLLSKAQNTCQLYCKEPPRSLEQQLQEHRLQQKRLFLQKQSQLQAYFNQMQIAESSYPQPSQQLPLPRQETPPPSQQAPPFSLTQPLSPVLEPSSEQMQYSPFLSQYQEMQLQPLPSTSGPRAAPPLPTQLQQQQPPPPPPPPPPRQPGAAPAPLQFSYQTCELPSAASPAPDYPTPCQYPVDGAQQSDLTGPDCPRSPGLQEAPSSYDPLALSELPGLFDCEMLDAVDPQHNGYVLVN
Method in brief: as §1

[3] = target: GST-tagged SIK1 (Homo sapiens (Human), UniProt P57059); assay: SIK1 inhibition test (ADP-Glo Max Assay); settings: enzyme 20 nM, AMARA Peptide 200 μM, ATP 1 mM, 2 hours room temperature
Sequence of GST-tagged SIK1 (P57059 whole entry): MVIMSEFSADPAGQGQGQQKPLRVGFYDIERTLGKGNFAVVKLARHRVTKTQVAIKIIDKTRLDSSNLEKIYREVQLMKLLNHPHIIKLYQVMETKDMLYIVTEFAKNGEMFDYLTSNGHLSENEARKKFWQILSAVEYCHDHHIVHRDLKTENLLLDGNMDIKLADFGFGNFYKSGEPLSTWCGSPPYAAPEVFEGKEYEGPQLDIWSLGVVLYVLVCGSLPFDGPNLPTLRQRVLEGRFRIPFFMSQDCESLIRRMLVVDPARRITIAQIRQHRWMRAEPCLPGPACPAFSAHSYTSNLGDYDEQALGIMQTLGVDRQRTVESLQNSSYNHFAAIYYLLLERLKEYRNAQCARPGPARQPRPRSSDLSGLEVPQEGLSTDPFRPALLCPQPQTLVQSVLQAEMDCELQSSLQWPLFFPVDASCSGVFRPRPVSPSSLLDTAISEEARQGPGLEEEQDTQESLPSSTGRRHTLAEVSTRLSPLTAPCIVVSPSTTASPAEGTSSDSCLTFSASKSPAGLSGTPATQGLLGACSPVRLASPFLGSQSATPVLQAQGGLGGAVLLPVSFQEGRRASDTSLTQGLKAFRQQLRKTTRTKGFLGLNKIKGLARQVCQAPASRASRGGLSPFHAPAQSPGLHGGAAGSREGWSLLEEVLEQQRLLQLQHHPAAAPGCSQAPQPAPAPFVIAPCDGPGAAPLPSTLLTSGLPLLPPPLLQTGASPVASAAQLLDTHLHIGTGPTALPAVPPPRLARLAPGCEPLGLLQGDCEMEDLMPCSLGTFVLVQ
Method in brief: as §1

Sequence of GST-tagged SIK3 (Q9Y2K2 whole entry): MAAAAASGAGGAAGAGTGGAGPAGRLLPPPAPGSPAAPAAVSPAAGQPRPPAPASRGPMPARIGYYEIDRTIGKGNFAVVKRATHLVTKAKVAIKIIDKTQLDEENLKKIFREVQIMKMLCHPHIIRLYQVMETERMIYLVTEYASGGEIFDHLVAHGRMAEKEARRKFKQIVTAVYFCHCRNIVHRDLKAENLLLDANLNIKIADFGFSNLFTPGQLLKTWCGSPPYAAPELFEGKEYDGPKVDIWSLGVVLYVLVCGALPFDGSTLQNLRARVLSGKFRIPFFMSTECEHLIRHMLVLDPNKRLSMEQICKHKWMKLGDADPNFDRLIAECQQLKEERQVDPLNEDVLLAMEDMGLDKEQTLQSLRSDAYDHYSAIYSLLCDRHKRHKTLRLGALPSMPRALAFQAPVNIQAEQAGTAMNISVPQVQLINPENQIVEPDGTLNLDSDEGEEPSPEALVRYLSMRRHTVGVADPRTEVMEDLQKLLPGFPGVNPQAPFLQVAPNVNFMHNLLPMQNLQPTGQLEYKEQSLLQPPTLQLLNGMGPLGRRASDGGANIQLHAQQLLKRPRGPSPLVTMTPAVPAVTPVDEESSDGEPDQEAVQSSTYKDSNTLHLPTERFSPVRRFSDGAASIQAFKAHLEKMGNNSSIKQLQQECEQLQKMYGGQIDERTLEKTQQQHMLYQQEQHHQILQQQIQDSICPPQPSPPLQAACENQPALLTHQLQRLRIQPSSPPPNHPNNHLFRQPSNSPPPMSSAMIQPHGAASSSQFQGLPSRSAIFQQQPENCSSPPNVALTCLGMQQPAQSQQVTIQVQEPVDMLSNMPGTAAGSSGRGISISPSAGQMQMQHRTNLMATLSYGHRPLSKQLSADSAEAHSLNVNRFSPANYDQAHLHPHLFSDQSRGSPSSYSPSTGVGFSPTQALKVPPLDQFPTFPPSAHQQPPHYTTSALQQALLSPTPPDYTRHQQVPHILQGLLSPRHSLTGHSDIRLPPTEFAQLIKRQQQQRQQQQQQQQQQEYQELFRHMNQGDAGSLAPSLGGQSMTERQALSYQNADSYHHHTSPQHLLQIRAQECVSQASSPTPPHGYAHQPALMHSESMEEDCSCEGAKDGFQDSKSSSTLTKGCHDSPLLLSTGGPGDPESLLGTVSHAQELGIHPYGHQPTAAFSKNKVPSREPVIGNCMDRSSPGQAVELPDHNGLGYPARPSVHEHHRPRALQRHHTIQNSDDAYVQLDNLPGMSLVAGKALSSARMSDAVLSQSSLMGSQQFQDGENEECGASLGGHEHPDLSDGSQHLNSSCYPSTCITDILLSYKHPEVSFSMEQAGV

`COc1cc(-c2c3c(C(F)F)cc(-c4cnn(CC(C)(C)O)c4)cc3nn2C)cc(OC(F)F)c1C(=O)N[C@@H]1CC1(F)F` [Example 109] was tested, and the IC50 [1] was 2.3 nM, the IC50 [2] was 18.1 nM and the IC50 [3] was 18 nM.

Compound `COc1cc(-c2c3c(C#N)cc(-c4cnn(CC5(O)CCC5)c4)cc3nn2C)cc(OC(F)F)c1C(=O)N[C@@H]1CC1(F)F` [Example 110, 4-[4-cyano-6-[1-[(1-hydroxycyclobutyl)methyl]pyrazol-4-yl]-2-methylindazol-3-yl]-N-[(1R)-2,2-difluorocyclopropyl]-2-(difluoromethoxy)-6-methoxybenzamide] has an IC50 [1] of 1.7 nM, an IC50 [2] of 3.2 nM and an IC50 [3] of 6.5 nM.

With `COc1cc(-c2c3c(C#N)cc(-c4cnn(CCC(C)(C)O)c4)cc3nn2C)cc(OC(F)F)c1C(=O)N[C@@H]1CC1(F)F` [Example 111, 4-[4-cyano-6-[1-(3-hydroxy-3-methylbutyl)pyrazo]-4-yl]-2-methylindazol-3-yl]-N-[(1R)-2,2-difluoro[cyclopropyl]-2-(difluoromethoxy)-6-methoxybenzamide] the IC50 [1] was 1.7 nM, the IC50 [2] was 1.7 nM and the IC50 [3] was 6.2 nM.

With `CCn1cc(-c2cc(C(F)F)c3c(-c4cc(OC)c(C(N)=O)c(OC(F)F)c4)n(C)nc3c2)cn1` [Example 112, 2-(difluoromethoxy)-4-[4-(difluoromethyl)-6-(1-ethylpyrazol-4-yl)-2-methylindazol-3-yl]-6-methoxybenzamide] the IC50 [1] was 3 nM, the IC50 [2] was 13.7 nM and the IC50 [3] was 16.6 nM.

`CCCn1cc(-c2cc(C(F)F)c3c(-c4cc(OC)c(C(N)=O)c(OC(F)F)c4)n(C)nc3c2)cn1` [Example 113, 2-(difluoromethoxy)-4-[4-(difluoromethyl)-2-methyl-6-(1-propylpyrazol-4-yl)indazol-3-yl]-6-methoxybenzamide] showed an IC50 [1] of 2.7 nM, an IC50 [2] of 15.6 nM and an IC50 [3] of 19.7 nM.

`COc1cc(-c2c3c(C#N)cc(-c4cnn(CC(C)(C)O)c4)cc3nn2C)cc(OC(F)F)c1C(=O)N[C@@H]1CC1(F)F` [Example 114] gave an IC50 [1] of 0.7 nM, an IC50 [2] of 4.1 nM and an IC50 [3] of 12.6 nM.

With `COc1cc(-c2c3c(C#N)cc(-c4cnn(CC(F)F)c4)cc3nn2C)cc(OC(F)F)c1C(=O)N[C@@H]1CC1(F)F` [Example 115, 4-[4-cyano-6-[1-(2,2-difluoroethyl)pyrazol-4-yl]-2-methylindazol-3-yl]-N-[(1R)-2,2-difluorocyclopropyl]-2-(difluoromethoxy)-6-methoxybenzamide] the IC50 [1] was < 0.6 nM, the IC50 [2] was 2.4 nM and the IC50 [3] was 9.4 nM.

`CCn1cc(-c2cc(C(F)F)c3c(-c4cc(OC)c(C(=O)N[C@@H]5CC5(F)F)c(OC(F)F)c4)n(C)nc3c2)cn1` [Example 116, N-[(1R)-2,2-difluorocyclopropyl]-2-(difluoromethoxy)-4-[4-(difluoromethyl)-6-(1-ethylpyrazol-4-yl)-2-methylindazol-3-yl]-6-methoxybenzamide] was tested, and the IC50 [1] was 1.1 nM, the IC50 [2] was 5.8 nM and the IC50 [3] was 16.1 nM.

Work on `COc1cc(-c2c3c(C(F)F)cc(-c4cnn(CC5(O)CCC5)c4)cc3nn2C)cc(OC(F)F)c1C(=O)N[C@@H]1CC1(F)F` [Example 117, N-[(1R)-2,2-difluorocyclopropyl]-2-(difluoromethoxy)-4-[4-(difluoromethyl)-6-[1-[(1-hydroxycyclobutyl)methyl]pyrazol-4-yl]-2-methylindazol-3-yl]-6-methoxybenzamide] yielded an IC50 [1] of 1 nM, an IC50 [2] of 9.3 nM and an IC50 [3] of 12.5 nM.

`CCn1cc(-c2cc(C#N)c3c(-c4cc(OC)c(C(=O)N[C@@H]5CC5(F)F)c(OC(F)F)c4)n(C)nc3c2)cn1` [Example 118, 4-[4-cyano-6-(1-ethylpyrazol-4-yl)-2-methylindazol-3-yl]-N-[(1R)-2,2-difluorocyclopropyl]-2-(difluoromethoxy)-6-methoxybenzamide] was tested, and the IC50 [1] was 0.6 nM, the IC50 [2] was 1 nM and the IC50 [3] was 5.3 nM.

`COc1cc(-c2c3c(C(F)F)cc(-c4cnn(CCC(C)(C)O)c4)cc3nn2C)cc(OC(F)F)c1C(=O)N[C@@H]1CC1(F)F` [Example 119] showed an IC50 [1] of 0.7 nM, an IC50 [2] of 2.6 nM and an IC50 [3] of 3.9 nM.

With `COc1cc(-c2c3c(C(F)F)cc(-c4cnn(CC[C@@H](C)O)c4)cc3nn2C)cc(OC(F)F)c1C(=O)N[C@@H]1CC1(F)F` [Example 120, N-[(1R)-2,2-difluorocyclopropyl]-2-(difluoromethoxy)-4-[4-(difluoromethyl)-6-[1-[(3R)-3-hydroxybutyl]pyrazol-4-yl]-2-methylindazol-3-yl]-6-methoxybenzamide] the IC50 [1] was 0.7 nM, the IC50 [2] was 3.5 nM and the IC50 [3] was 7.8 nM.

In the case of `COc1cc(-c2c3c(C(F)F)cc(-c4cnn(C[C@H]5C[C@@H](O)C5)c4)cc3nn2C)cc(OC(F)F)c1C(=O)N[C@@H]1CC1(F)F` [Example 121, N-[(1R)-2,2-difluorocyclopropyl]-2-(difluoromethoxy)-4-[4-(difluoromethyl)-6-[1-[(cis-3-hydroxycyclobutyl)methyl]pyrazol-4-yl]-2-methylindazol-3-yl]-6-methoxybenzamide], the IC50 [1] is reported as 1.1 nM, the IC50 [2] is reported as 4.8 nM and the IC50 [3] is reported as 9.5 nM.

In the case of `COc1cc(-c2c3c(C#N)cc(-c4cnn(CCC5(O)CCC5)c4)cc3nn2C)cc(OC(F)F)c1C(=O)NCC1(F)CC1` [Example 122, 4-[4-cyano-6-[1-[2-(1-hydroxycyclobutyl)ethyl]pyrazol-4-yl]-2-methylindazol-3-yl]-2-(difluoromethoxy)-N-[(1-fluorocyclopropyl)methyl]-6-methoxybenzamide], the IC50 [1] is reported as 4.4 nM, the IC50 [2] is reported as 7.9 nM and the IC50 [3] is reported as 15.8 nM.

Compound `COc1cc(-c2c3c(C#N)cc(-c4cnn(CCC5(O)CCC5)c4)cc3nn2C)cc(OC(F)F)c1C(=O)N[C@@H]1CC1(F)F` [Example 123, 4-[4-cyano-6-[1-[2-(1-hydroxycyclobutyl)ethyl]pyrazol-4-yl]-2-methylindazol-3-yl]-N-[(1R)-2,2-difluorocyclopropyl]-2-(difluoromethoxy)-6-methoxybenzamide] has an IC50 [1] of 0.6 nM, an IC50 [2] of 1.7 nM and an IC50 [3] of 4.4 nM.

`COc1cc(-c2c3c(C#N)cc(-c4cnn(C[C@H](O)C(F)(F)F)c4)cc3nn2C)cc(OC(F)F)c1C(=O)N[C@@H]1CC1(F)F` [Example 124, 4-[4-cyano-2-methyl-6-[1-[(2S)-3,3,3-trifluoro-2-hydroxypropyl]pyrazol-4-yl]indazol-3-yl]-N-[(1R)-2,2-difluorocyclopropyl]-2-(difluoromethoxy)-6-methoxybenzamide] gave an IC50 [1] of 1.6 nM, an IC50 [2] of 1.1 nM and an IC50 [3] of 8 nM.

For `COc1cc(-c2c3c(C#N)cc(-c4cnn(C[C@H](C)O)c4)cc3nn2C)cc(OC(F)F)c1C(N)=O` [Example 125, 4-[4-cyano-6-[1-[(2S)-2-hydroxypropyl]pyrazol-4-yl]-2-methylindazol-3-yl]-2-(difluoromethoxy)-6-methoxybenzamide], the IC50 [1] was 2.9 nM, the IC50 [2] was 1.8 nM and the IC50 [3] was 11.5 nM.

In the case of `COc1cc(-c2c3c(C#N)cc(-c4cnn(C)c4)cc3nn2C)cc2c1C(=O)NCC2(C)C` [Example 129, 3-(8-methoxy-4,4-dimethyl-1-oxo-2,3-dihydroisoquinolin-6-yl)-2-methyl-6-(1-methylpyrazol-4-yl)indazol-4-carbonitrile], the IC50 [1] is reported as 6.6 nM, the IC50 [2] is reported as 0.9 nM and the IC50 [3] is reported as 5.1 nM.

`COc1cc(-c2c3c(OC)cc(-c4cnn(C)c4)cc3nn2C)cc(OC(F)F)c1C(N)=O` [Example 130, 2-(difluoromethoxy)-6-methoxy-4-[4-methoxy-2-methyl-6-(1-methylpyrazol-4-yl)indazol-3-yl]benzamide] was tested, and the IC50 [1] was 16.8 nM, the IC50 [2] was 2.1 nM and the IC50 [3] was 16.9 nM.

For `COc1cc(-c2c3c(OC(F)F)cc(-c4cnn(C)c4)cc3nn2C)cc(OC(F)F)c1C(N)=O` [Example 131, 2-(difluoromethoxy)-4-[4-(difluoromethoxy)-2-methyl-6-(1-methylpyrazol-4-yl)indazol-3-yl]-6-methoxybenzamide], the IC50 [1] was 16.3 nM, the IC50 [2] was 4.5 nM and the IC50 [3] was 12.2 nM.

For `COc1cc(-c2c3c(C#N)cc(-c4cnn(C(C)C)c4)cc3nn2C)cc(OC(F)F)c1C(N)=O` [Example 132, 4-[4-cyano-2-methyl-6-(1-propan-2-ylpyrazol-4-yl)indazol-3-yl]-2-(difluoromethoxy)-6-methoxybenzamide], the IC50 [1] was 5.8 nM, the IC50 [2] was 4 nM and the IC50 [3] was 16.1 nM.

With `COCCn1cc(-c2cc(C#N)c3c(-c4cc(OC)c(C(N)=O)c(OC(F)F)c4)n(C)nc3c2)cn1` [Example 133, 4-[4-cyano-6-[1-(2-methoxyethyl)pyrazol-4-yl]-2-methylindazol-3-yl]-2-(difluoromethoxy)-6-methoxybenzamide] the IC50 [1] was 4.9 nM, the IC50 [2] was 2.1 nM and the IC50 [3] was 13.6 nM.

Work on `COCCn1cc(-c2cc(C(F)F)c3c(-c4cc(OC)c(C(N)=O)c(OC(F)F)c4)n(C)nc3c2)cn1` [Example 134, 2-(difluoromethoxy)-4-[4-(difluoromethyl)-6-[1-(2-methoxyethyl)pyrazol-4-yl]-2-methylindazol-3-yl]-6-methoxybenzamide] yielded an IC50 [1] of 5.7 nM, an IC50 [2] of 3.3 nM and an IC50 [3] of 13.6 nM.

For `COc1cc(-c2c3c(C#N)cc(-c4cnn(CC(C)C)c4)cc3nn2C)cc(OC(F)F)c1C(N)=O` [Example 135, 4-[4-cyano-2-methyl-6-[1-(2-methylpropyl)pyrazol-4-yl]indazol-3-yl]-2-(difluoromethoxy)-6-methoxybenzamide], the IC50 [1] was 5.9 nM, the IC50 [2] was 6.2 nM and the IC50 [3] was 17.2 nM.

`CCOc1cc(-c2cnn(C)c2)cc2nn(C)c(-c3cc(OC)c(C(N)=O)c(OC(F)F)c3)c12` [Example 136, 2-(difluoromethoxy)-4-[4-ethoxy-2-methyl-6-(1-methylpyrazol-4-yl)indazol-3-yl]-6-methoxybenzamide] was tested, and the IC50 [1] was 13.4 nM, the IC50 [2] was 3.4 nM and the IC50 [3] was 7.6 nM.
